Data on one molecule can be found in ChEMBL document CHEMBL6153102, “Rational Design, Synthesis, and Biological Evaluation of Novel c-Met Degraders for Lung Cancer Therapy” (J Med Chem, 2025).

A short description of series [1]: Metabolic stability in human liver microsome assessed as half life. The following applies: liver microsomes. Type of series: ADME. For orientation: Liver microsomes are a subcellular fraction often used to study metabolism.
Series [2] has as its target T1, Protein cereblon/Hepatocyte growth factor receptor (Homo sapiens, UniProt P08581+Q96SW2). Nature of the series: PROTAC activity at c-Met/CRBN in human EBC-1 cells assessed as reduction in AKR1C3 level at 15.6 nM incubated for 24 hrs by proteomics analysis. Type of series: cell-based.
For series [3], the target named is T1, Protein cereblon/Hepatocyte growth factor receptor. Nature of the series: PROTAC activity at c-Met/CRBN in human EBC-1 cells assessed as reduction in IFRD1 level at 15.6 nM incubated for 24 hrs by proteomics analysis. Type of series: cell-based.
Series [4] can be described thus: Bioavailability in Sprague-Dawley rat at 5 mg/kg, ip measured upto 24 hrs by LC-MS/MS analysis. The following applies: in vivo. Type of series: ADME, organism-based.
Series [5] has as its target T1, Protein cereblon/Hepatocyte growth factor receptor. Kind of series: PROTAC activity at c-Met/CRBN in human EBC-1 cells assessed as reduction in TPX2 level at 15.6 nM incubated for 24 hrs by proteomics analysis. It counts as cell-based.
Series [6] in a line: Toxicity in BALB/c nude mouse assessed as liver damage at 10 to 20 mg/kg, ip administered for 7 days by H and E staining based analysis. It counts as organism-based. The settings on record: in vivo, 168 h, dose 10-20 mg/kg, time 7 day.
Series [7] deals with T1, Protein cereblon/Hepatocyte growth factor receptor. Nature of the series: PROTAC activity at c-Met/CRBN in human A549 cells assessed as induction of c-Met degradation at 100 nM incubated for 24 hrs by Western blotting analysis relative to control. It counts as cell-based. In general terms: In western blotting, separated proteins are transferred to a membrane and probed.

Series [8] shares this target. Kind of series: PROTAC activity at c-Met/CRBN in human EBC-1 cells assessed as effect on SALL4 level at 15.6 nM incubated for 24 hrs by proteomics analysis. It counts as cell-based.
The subject of the next series is EBC-1. Nature of the series: Induction of apoptosis in human EBC-1 cells assessed as viable cells at 15 nM incubated for 24 hrs by Annexin V/FITC staining based flow cytometry analysis (reference value: 95.9%). It counts as functional. The following applies: read-out: Activity.
Series [9] in a line: Toxicity in BALB/c nude mouse assessed as kidney damage at 10 to 20 mg/kg, ip administered for 7 days by H and E staining based analysis. It counts as organism-based. The following applies: in vivo, 168 h, dose 10-20 mg/kg, time 7 day.

The source made the active and inactive calls. No cut-off for these calls is given here.

T1 sequence (P08581 25-1390 limits assumed): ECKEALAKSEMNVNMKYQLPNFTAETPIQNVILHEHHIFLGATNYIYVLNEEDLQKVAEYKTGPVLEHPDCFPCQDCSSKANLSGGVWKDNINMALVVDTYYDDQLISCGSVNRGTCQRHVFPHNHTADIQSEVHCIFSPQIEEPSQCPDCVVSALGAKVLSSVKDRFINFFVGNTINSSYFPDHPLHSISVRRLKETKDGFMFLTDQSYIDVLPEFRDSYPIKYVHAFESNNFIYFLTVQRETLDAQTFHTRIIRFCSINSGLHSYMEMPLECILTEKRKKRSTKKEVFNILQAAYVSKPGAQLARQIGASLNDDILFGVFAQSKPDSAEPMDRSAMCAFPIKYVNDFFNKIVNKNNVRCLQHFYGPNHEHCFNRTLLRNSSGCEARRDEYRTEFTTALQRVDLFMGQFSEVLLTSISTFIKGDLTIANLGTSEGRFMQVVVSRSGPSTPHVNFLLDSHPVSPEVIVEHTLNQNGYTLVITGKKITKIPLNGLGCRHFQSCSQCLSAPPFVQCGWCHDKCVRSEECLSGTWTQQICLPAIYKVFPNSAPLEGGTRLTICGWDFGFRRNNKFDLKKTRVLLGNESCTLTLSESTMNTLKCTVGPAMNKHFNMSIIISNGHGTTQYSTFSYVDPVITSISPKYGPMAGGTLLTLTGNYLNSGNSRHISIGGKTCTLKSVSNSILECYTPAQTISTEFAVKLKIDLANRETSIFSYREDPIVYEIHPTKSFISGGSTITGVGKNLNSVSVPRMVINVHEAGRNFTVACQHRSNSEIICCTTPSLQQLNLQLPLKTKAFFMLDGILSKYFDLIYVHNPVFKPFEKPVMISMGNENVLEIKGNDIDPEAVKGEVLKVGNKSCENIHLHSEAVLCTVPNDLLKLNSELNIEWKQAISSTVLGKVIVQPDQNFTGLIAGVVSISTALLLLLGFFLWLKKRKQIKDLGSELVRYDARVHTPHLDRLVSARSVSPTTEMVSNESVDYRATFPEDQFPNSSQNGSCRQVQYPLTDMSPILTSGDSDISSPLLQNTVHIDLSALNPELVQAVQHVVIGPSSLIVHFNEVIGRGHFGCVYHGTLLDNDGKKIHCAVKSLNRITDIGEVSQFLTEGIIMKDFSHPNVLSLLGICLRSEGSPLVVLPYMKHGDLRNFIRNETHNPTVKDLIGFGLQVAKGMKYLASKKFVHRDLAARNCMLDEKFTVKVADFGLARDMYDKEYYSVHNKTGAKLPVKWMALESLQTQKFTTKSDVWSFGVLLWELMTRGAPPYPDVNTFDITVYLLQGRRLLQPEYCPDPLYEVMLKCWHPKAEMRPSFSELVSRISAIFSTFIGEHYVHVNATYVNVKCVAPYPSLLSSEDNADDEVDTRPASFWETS
T1 sequence (Q96SW2 whole entry partner): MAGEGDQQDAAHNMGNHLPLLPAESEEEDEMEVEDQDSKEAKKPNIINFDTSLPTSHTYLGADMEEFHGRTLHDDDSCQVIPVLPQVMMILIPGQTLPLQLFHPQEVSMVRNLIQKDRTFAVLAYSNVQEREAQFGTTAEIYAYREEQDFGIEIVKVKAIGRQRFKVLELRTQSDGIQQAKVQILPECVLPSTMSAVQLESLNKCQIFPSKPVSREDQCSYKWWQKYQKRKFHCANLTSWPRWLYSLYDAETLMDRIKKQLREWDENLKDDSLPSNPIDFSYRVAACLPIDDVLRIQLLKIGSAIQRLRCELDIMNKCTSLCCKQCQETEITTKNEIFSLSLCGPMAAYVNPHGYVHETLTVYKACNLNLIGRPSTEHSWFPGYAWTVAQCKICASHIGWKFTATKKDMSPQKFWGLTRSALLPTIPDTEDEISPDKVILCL

Usually half-life stands for how long it takes for the measured level to halve. One may read the bioavailability as the share of a dose that reaches the circulation, judged against a reference dose that is usually intravenous. A high value points to good availability. `COc1ccc(C(=O)N2CCC3(CCN(C(=O)CN4CCC(COc5cnc(-c6cccc(Cn7nc(-c8cccc(C#N)c8)ccc7=O)c6)nc5)CC4)CC3)CC2)cc1N1CCC(=O)NC1=O`: the half-life in [1] is 21.7 min. For the same molecule, the outcome in series [2], in series [3] and in series [5] was Active. Besides, the bioavailability in series [4] turned out to be 49.2%. Besides, the values for the Activity entry in [6], in series [8] and in series [9] were “Non-toxic”, “No effect” and “Non-toxic”, respectively. The outcome in series [7] was inactive. The viability at 0.015 µM with EBC-1 turned out to be 65%.
